Assay results from a melting point compilation (Tetko et al.; mined from patent text by program, amines drawn as free bases though some values may be those of a salt).

Row | SMILES | melting point [°C]
1 | CCCCC(=O)c1c(-c2ccc3c(Br)c(OCC(=O)O)ccc3c2)sc2ccccc12 | 164 to 165
2 | CC(C)C[C@H](NC(=O)Cc1csc2ccccc12)C(=O)N[C@@H](Cc1ccccc1)C(=O)CSCc1ccco1 | 150 to 153
3 | CCOC(=O)c1ccc(OC(=O)c2cccc(C(=O)Oc3ccc(C(=O)OCC)cc3)c2)cc1 | 123 to 125
4 | C=Cc1cc(Br)c(OC(C)=O)c(Br)c1 | 76
5 | Cn1ccnc1N1CCC(c2ccc([N+](=O)[O-])cc2)CC1 | 155 to 156
6 | COc1ccc(S(=O)(=O)C[N+](=O)[O-])c2ccccc12 | 109 to 110
7 | CCOC(=O)c1cc(C#N)cc(C)n1 | 50
8 | Cc1cc(Br)cnc1NCCCNC1=NS(=O)N=C1NCc1ccc(F)cc1 (configuration not stated) | 125 to 126
9 | Cc1cc2c(nc1N)C(=O)N(C(C)C1CC1)C2=O (configuration not stated) | 219 to 220
10 | CSCC(C)(C)NC(=O)c1c(I)cccc1Oc1ccc(Cl)cc1C | 128 to 130
11 | CC(CCCC(C)(C)Cl)C1CC=C2C3=C(CCC21C)C1(C)CCC(O)C(C)(C)C1CC3 (configuration not stated) | 131 to 133
12 | CNc1nc(Cl)nc2c1ncn2C1CC(O)C(CO)O1 (configuration not stated) | 163 to 165
13 | Cn1c(SCC(=O)C23CC4CC(CC(C4)C2)C3)nnc1C1CC1 | 96 to 97.5
14 | Cc1[nH]c(=O)c(C#N)cc1-c1ccc2nccn2c1 | > 300
15 | CCCC1=NN(c2ccc([N+](=O)[O-])cc2)C(=O)C1=CNc1ccccc1CC | 211
16 | CCN(CC)N(C(C)=O)c1nc2cc3nc(N)sc3cc2s1 | 203 to 205
17 | c1ccc(P(c2ccccc2)c2c3ccccc3cc3ccccc23)cc1 | 204
18 | CC(C)(C)C(O)c1ccc(C(=O)c2ccccc2)cc1 (configuration not stated) | 103 to 105
19 | Cn1ncc2c1-c1c(Oc3ccc4c(c3)OCO4)sc(C(=O)NC(C)(C)C)c1CC2 | 171 to 179
20 | COc1ccc(S(=O)(=O)n2ccc3cccc(-c4ccc(F)cc4)c32)cc1 | 181 to 182
21 | O=[N+]([O-])c1ccc(C2NCCc3c2[nH]c2ccccc32)cc1 (configuration not stated) | 190
22 | O=P(Cc1ccccc1O)(c1ccccc1)c1ccccc1 | 179

Row | SMILES | melting point [°C]
23 | CCCN=C(N)Nc1ccnc(SCCCC(=N)NC#N)n1 | 210 to 215
24 | Cc1cccc(-c2[nH]c(C(C)C)nc2-c2cccc(-c3ccc(OC(F)(F)F)cc3)c2)n1 | 120 to 122
25 | CCOC(=O)C(C)(C(=O)OCC)c1ccc(N)c(C(C(=O)OC)C(=O)OC)c1 | 91 to 92
26 | CCCn1cc2c(C3C(=O)Nc4ccc(C)cc43)nc(Cl)nc2n1 (configuration not stated) | 275 to 280
27 | CCOC(Cc1ccc(OCCN2c3ccccc3Sc3ccccc32)cc1)C(=O)O (configuration not stated) | 106 to 113
28 | Fc1ccc(Cn2c(NC3CCN(CCc4cnccn4)CC3)nc3ccccc32)cc1 | 165
29 | COc1ccc(-c2sc(-c3ccc(OC)s3)c3c2OCCO3)s1 | 101
30 | CN(C(CCn1c(=O)[nH]c2ncccc2c1=O)C(=O)NO)S(=O)(=O)c1ccc(Oc2ccccc2)cc1 (configuration not stated) | 125 to 126
31 | CC(C(=O)N(C)C)n1cc(C#N)c(-c2ccccc2)n1 (configuration not stated) | 143 to 146
32 | CC(C)(C)NC(=O)[C@@H](N)C(C)(C)C | 78 to 80
33 | CC(C)(C)OC(=O)NCCCBr | 40
34 | COc1cccc2c(=O)n(C(C)(C)C(=O)OCC(=O)c3ccccc3)c(=O)[nH]c12 | 132 to 133
35 | Cc1nc(=O)n(COc2ccccc2)c(C)c1Br | 120
36 | CCCCNc1nc2c(C(=O)OCC)cnn2c2c1cnc1c2cnn1CC | 275 to 277
37 | CCOC(=O)C1=C(C#N)NC(C)=C(C(=O)OCCOCc2ccccc2)C1c1ccccc1[N+](=O)[O-] (configuration not stated) | 139 to 140
38 | O=C(Cc1ccsc1)Nc1ccc(Br)cn1 | 117
39 | Nc1nc(OCc2cccc(Br)c2)ncc1F | 143 to 145
40 | COC(=O)C1CCC2C3CCC4CC(C)(O)CCC4(C)C3C(=O)CC12C (configuration not stated) | 150
41 | CCc1nc(-c2ccc(OCCCn3ccnc3)cc2)no1 | 74 to 75.5
42 | O=S(=O)(Cl)CCc1ccc(Cl)cc1 | 87 to 87.5
43 | CN(CCCCP(=O)(O)O)S(=O)(=O)C(F)(F)C(F)(F)C(F)(F)C(F)(F)C(F)(F)C(F)(F)C(F)(F)C(F)(F)F | 150 to 163
44 | CCOC(=O)CNc1ncccc1NC(=O)c1ccccc1Cl | 111 to 112

Row | SMILES | melting point [°C]
45 | Cc1nc2ncnn2c2c1CCN2C1CCCCCCC1 | 188 to 190
46 | CCCCC(NC(=O)C(CC(C)C)NC(=O)COc1ccc2ccccc2c1)C(=O)CSCc1ccco1 (configuration not stated) | 87 to 89
47 | CC(C)(C)C(O)C(=CC1CCCCC1)n1cncn1 (configuration not stated) | 145 to 148
48 | O=C(Oc1ccc([N+](=O)[O-])cc1)[C@@H]1CCCN1C(=O)OCc1ccccc1 | 94 to 96
49 | COCc1nc(C(C)(C)O)c(C(=O)OCOC(=O)C(C)(C)C)n1Cc1ccc(-c2ccccc2-c2nnn[nH]2)cc1 | 71 to 72
50 | Cc1ccc(S(=O)(=O)OCCc2cc3ccccc3o2)cc1 | 195 to 197
51 | C[C@H](C(=O)N[C@@H](COC(=O)C(C)(C)C)Cc1ccccc1)c1ccc(NS(C)(=O)=O)c(F)c1 | 117 to 119
52 | O=C(O)c1cccc2ccc(-c3ccc([N+](=O)[O-])cc3)nc12 | 272 to 274
53 | O=C(O)CCc1cccc(NC(=O)NCC(=O)N2[C@@H](c3ccccc3)CC[C@H]2c2ccccc2)c1 | 170
54 | Cc1ccc(CCOCC(=O)O)cc1 | 65 to 67
55 | CCCNCCc1ccc(NS(=O)(=O)c2ccc(Cl)cc2Cl)cc1 | 165 to 168
56 | Cc1c(CNC(C)C)ncn1C(c1ccccc1)(c1ccccc1)c1ccccc1 | 150 to 154
57 | OC1(c2ccc3c(c2)OCO3)CCN(Cc2ccccc2)CC1 | 144
58 | C[C@H]1CN(c2nc(-c3ccccc3)nc3ccccc23)[C@@H](C)CN1c1ccccn1 (relative stereo) | 68 to 70
59 | C=CC(C)(O)C=CC1=C(C)C(=O)C(OC(C)(C)OC)CC1(C)C (configuration not stated) | 47.5 to 49
60 | Cc1ccc(NS(=O)(=O)c2ccccc2)cc1 | 118 to 119
61 | Nc1ncnc2ncn(Cc3ccccc3)c12 | 252 to 255
62 | COc1ccc2c(c1)c(C=C1SC(=N)NC1=O)c(C)n2C(=O)c1ccc(Cl)cc1 | 269 to 270
63 | COc1cccc(C(=O)N2c3ccccc3C(O)CC2C)c1 (configuration not stated) | 148 to 149
64 | CC(C)c1ccc(-n2nc(O)c3c(=O)c4ccc(Cl)cc4[nH]c3c2=O)cc1 | 393 to 394
65 | Nc1nc2c(s1)CCN(CC=Cc1ccc(OCc3ccccc3)cc1)CC2 | 135 to 140

Results, then the compound that gave them:

Row | melting point [°C] | SMILES
66 | 248 to 249 | COc1cc(OC)c2c(=O)[nH]c(-c3ccc(OC4CCN(C(=O)N(C)C)CC4)cc3)nc2c1
67 | 172 to 173 | C[C@]1(COc2ccc(N3CCC(COCc4ccc(C(F)(F)F)cc4)CC3)cc2)Cn2cc([N+](=O)[O-])nc2O1
68 | 167 | O=C1CC(C(=O)NC(c2ccccc2)c2ccc(Cl)cc2)Oc2ccc(F)cc21 (single isomer, unassigned; (+))
69 | 105 | CCOC(=O)c1cc(CC)sc1Nc1cc(F)c(F)cc1[N+](=O)[O-]
70 | 150 | CC1=C(C(=O)OC2CCCC2)C(c2c(F)cccc2Cl)C(C(=O)n2ccnc2)=C(C)N1 (configuration not stated)
71 | 138 | COc1cc2c(cc1OC)S(=O)CCC(C(=O)N1CCN(C(=O)c3cc(OC)c(OC)c(OC)c3)CC1)=C2 (configuration not stated)
72 | 212 to 213 | CSc1ccc(C(=O)c2c(C)c(C(=O)O)c3n2CCC3C(=O)O)n1C (configuration not stated)
73 | 202 to 203 | O=C(O)c1csc2ccc(OS(=O)(=O)c3ccccc3)cc12
74 | 308 to 310 | CN(c1ccc(-c2ccc(C(=N)N)cc2)nn1)[C@H]1CC[C@H](C(=O)O)CC1
75 | 263 to 265 | COc1ccc(NC(=O)/C=C/c2ccc([N+](=O)[O-])c(F)c2)cc1[N+](=O)[O-]
76 | 225 to 226 | CCC(=O)N1CCC(NC(=O)Nc2ccc(Cl)cc2)CC1
77 | 134 to 135 | O=C(O)C(Cc1ccccc1)NC(=O)N1CCc2cc(S(=O)(=O)N3CCN(c4cccc(Cl)c4)CC3)ccc21 (configuration not stated)
78 | 225 to 227 | O=C(O)c1c[nH]c2c1C(=O)CCCC2
79 | 186 | CC(=O)NC[C@H]1CN(c2ccc(I)c(F)c2)C(=O)O1
80 | 103 to 105 | NCCCCC(=O)N1CCC(c2[nH]nc3c2C(=O)c2c(NC(=O)NN4CCOCC4)cccc2-3)CC1
81 | 257 to 261 | O=C1c2cccc3c(F)ccc(c23)C(=O)N1O

Row | melting point [°C] | SMILES
82 | 109 to 112 | COC(=O)CCCc1cc2cc(Cl)ccc2n1S(=O)(=O)c1ccccc1
83 | 230 to 231 | CCOC(=O)c1cn(-c2ncnn2C)c2cc(F)c(F)cc2c1=O
84 | 108 to 113 | O=C(NCC12CC3CC(CC(C3)C1)C2)c1cc(-c2c(F)cccc2C(=O)O)ccc1Cl
85 | 153 to 157 | CCC(CC)(CC(=O)Nc1cccc(/C=C/c2nc(C3CC3)cs2)c1)C(=O)O
86 | 148 to 150 | CCc1nn(CC2CC2)c2cc(C(=O)Nc3c(Cl)cncc3Cl)ccc12
87 | 276 to 278 | O=C(O)CCCC(=O)N1CCN(c2cc3c(cc2F)c(=O)c(C(=O)O)c2sccn23)CC1
88 | 166 to 169 | CCc1nn(C2CCCC2)c2cc(C(=O)NCCC(=O)NO)ccc12
89 | 101 to 103 | CCc1c(OC)nc(OC)nc1C(=O)c1cc(C)cc(CO)c1
90 | 232 to 237 | CC1(CNC(=O)C(F)(F)F)CN(c2c(F)cc3c(=O)c(C(=O)O)cn(C4CC4)c3c2F)C1
91 | 173 to 175 | CNC(=O)/C=C1\CCc2c(Cl)cc(F)cc21
92 | 80 to 83 | Cc1c(CC(=O)N[C@@H](CO)C(=O)O)cc(-c2ccc(S(C)(=O)=O)cc2)n1-c1ccccc1
93 | 134 to 136 | CCN(CC)CCOCCC1CCCCN1C(=O)N1c2ccccc2C(=O)Nc2cccnc21 (configuration not stated)
94 | 205 to 206 | Cn1cc(-c2cc3cccnc3[nH]2)c2cc(C(=O)NC(CO)(CO)CO)ccc21
95 | 270 | CN1CCN(c2cc3c(cc2F)c(=O)c(C(=O)O)cn3CCO)CC1
96 | 246 to 249 | O=C(O)c1ccc2c(c1)CCCS2(=O)=O
97 | 145 to 147 | COc1ccc(C(O)(c2ccc(OC)cc2)C2CCN(CCC3CN(C)C(=O)O3)CC2)cc1 (configuration not stated)
